One experiment addresses T1, human M4 receptor (Homo sapiens, UniProt P08173).
T1 construct: expressed in transfected cells
T1 sequence (P08173 1-479): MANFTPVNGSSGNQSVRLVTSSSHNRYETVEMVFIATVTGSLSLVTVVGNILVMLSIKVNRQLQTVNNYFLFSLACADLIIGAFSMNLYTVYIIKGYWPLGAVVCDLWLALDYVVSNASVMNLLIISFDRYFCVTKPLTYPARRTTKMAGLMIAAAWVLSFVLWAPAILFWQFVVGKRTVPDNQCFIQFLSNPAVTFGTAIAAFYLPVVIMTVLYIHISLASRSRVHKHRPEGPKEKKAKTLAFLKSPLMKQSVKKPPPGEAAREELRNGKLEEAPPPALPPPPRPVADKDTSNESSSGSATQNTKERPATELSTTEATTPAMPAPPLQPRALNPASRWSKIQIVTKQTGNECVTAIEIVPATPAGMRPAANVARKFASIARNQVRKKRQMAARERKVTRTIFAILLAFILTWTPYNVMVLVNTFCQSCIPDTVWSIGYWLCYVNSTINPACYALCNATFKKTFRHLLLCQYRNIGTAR
The experiment is described as follows: M4 GTPγS PAM assay. Particulars: membranes of CHO-K1 cells stably expressing human M4; EC20 acetylcholine 40 nM; 35S-GTP. It is filed as biochemical. The gist of the method: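 CHO-K1 membranes stably expressing human M4, preincubated with compound and 0.1 μM GDP (final) in 20 mM HEPES, 10 mM MgCl2, 100 mM NaCl, pH 7.4, then EC20 acetylcholine (40 nM final). 35S-GTPγS binding 1 h at room temperature, filtration and scintillation counting.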

The target in a further experiment is T2, rM4 receptors (Rattus norvegicus, UniProt P08485).
T2 construct: expressed in transfected cells; host or cells: CHO cells
T2 sequence (P08485 1-478): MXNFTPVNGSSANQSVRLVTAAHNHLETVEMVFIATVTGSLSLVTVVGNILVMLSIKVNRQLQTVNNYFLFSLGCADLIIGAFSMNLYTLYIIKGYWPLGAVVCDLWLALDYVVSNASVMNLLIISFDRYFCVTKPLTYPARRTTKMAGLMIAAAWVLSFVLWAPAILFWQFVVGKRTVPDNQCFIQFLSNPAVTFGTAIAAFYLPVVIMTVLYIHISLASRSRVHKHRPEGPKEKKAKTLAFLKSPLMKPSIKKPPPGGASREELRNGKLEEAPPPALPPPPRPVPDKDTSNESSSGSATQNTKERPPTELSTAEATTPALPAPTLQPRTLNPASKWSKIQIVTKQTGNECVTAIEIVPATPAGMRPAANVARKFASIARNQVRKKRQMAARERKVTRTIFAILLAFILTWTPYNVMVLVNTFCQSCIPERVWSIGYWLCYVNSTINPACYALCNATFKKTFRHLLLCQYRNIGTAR
The experiment can be described thus: Rat M4 PAM pERK assay. It is filed as cell-based. As to conditions: CHO cells expressing rM4; EC20 of acetylcholine (10 nM final); TR-FRET.

In the next experiment the target is T3, hM4 receptors (Homo sapiens, UniProt P08173).
T3 construct: expressed in transfected cells; host or cells: CHO cells
T3 sequence (P08173 1-479): T1 sequence (P08173 1-479)
The experiment can be described thus: Human M4 PAM pERK assay. Particulars: CHO cells expressing hM4; EC20 of acetylcholine (10 nM final); TR-FRET. It is filed as cell-based.

The EC50 is the concentration giving half of the maximal effect. Lower therefore signals higher potency in that assay. For the compound `COc1nc(C)nc2c1C(C)N(C(=O)CC1CN(c3cncnc3)C1)C2` (single isomer, unassigned) [Compound I-60, 1-(4-Methoxy-2,5-dimethyl-5,7-dihydro-6H-pyrrolo[3,4-d]pyrimidin-6-yl)-2-(1-(pyrimidin-5-yl)azetidin-3-yl)ethan-1-one], the 50% effective concentration (EC50) on human M4 receptor, on rM4 receptors and on hM4 receptors was not below 2000 nM each time.

As for `COc1nc(C)nc2c1CN(C(=O)CC1CN(c3ccnc(C(F)(F)F)c3)C1)C2C` (single isomer, unassigned) [Compound I-62, 1-(4-Methoxy-2,7-dimethyl-5,7-dihydro-6H-pyrrolo[3,4-d]pyrimidin-6-yl)-2-(1-(2-(trifluoromethyl)pyridin-4-yl)azetidin-3-yl)ethan-1-one], the EC50 at human M4 receptor was 100 to 500 nM; on rM4 receptors, 500 to 2000 nM; at hM4 receptors, 100 to 500 nM.

As to `COc1nc(C)nc2c1CN(C(=O)CC1CN(c3ccnc(C(F)(F)F)c3)C1)C2C` (single isomer, unassigned) [Compound I-63, 1-(4-Methoxy-2,7-dimethyl-5,7-dihydro-6H-pyrrolo[3,4-d]pyrimidin-6-yl)-2-(1-(2-(trifluoromethyl)pyridin-4-yl)azetidin-3-yl)ethan-1-one], the EC50 on human M4 receptor is 500 to 2000 nM; on rM4 receptors, not below 2000 nM; at hM4 receptors it was 500 to 2000 nM.

Turning to `COc1nc2c(c(OC)n1)C(C)N(C(=O)CC1CN(c3ccc(C#N)cc3)C1)C2` (single isomer, unassigned) [Compound I-65, 4-(3-(2-(2,4-dimethoxy-5-methyl-5,7-dihydro-6H-pyrrolo[3,4-d]pyrimidin-6-yl)-2-oxoethyl)azetidin-1-yl)benzonitrile], the EC50 at human M4 receptor, at rM4 receptors and at hM4 receptors was not below 2000 nM each time.

Regarding `COc1nc2c(c(OC)n1)C(C)N(C(=O)CC1CN(c3ccc(C#N)cc3)C1)C2` (single isomer, unassigned) [Compound I-66, 4-(3-(2-(2,4-dimethoxy-5-methyl-5,7-dihydro-6H-pyrrolo[3,4-d]pyrimidin-6-yl)-2-oxoethyl)azetidin-1-yl)benzonitrile], the concentration for a half-maximal effect (EC50) at human M4 receptor was 500 to 2000 nM; on rM4 receptors, 100 to 500 nM; on hM4 receptors, not above 100 nM.

For `COc1nc2c(c(OC)n1)C(C)N(C(=O)CC1CN(c3ccnc(C(F)(F)F)c3)C1)C2` (single isomer, unassigned) [Compound I-68, 1-(2,4-Dimethoxy-5-methyl-5,7-dihydro-6H-pyrrolo[3,4-d]pyrimidin-6-yl)-2-(1-(2-(trifluoromethyl)pyridin-4-yl)azetidin-3-yl)ethan-1-one], the EC50 on human M4 receptor is not above 100 nM; on rM4 receptors it was 100 to 500 nM; at hM4 receptors, 100 to 500 nM.

With `COc1nc2c(c(OC)n1)C(C)N(C(=O)CC1CN(c3ccnc(C(F)(F)F)c3)C1)C2` (single isomer, unassigned) [Compound I-69, 1-(2,4-Dimethoxy-5-methyl-5,7-dihydro-6H-pyrrolo[3,4-d]pyrimidin-6-yl)-2-(1-(2-(trifluoromethyl)pyridin-4-yl)azetidin-3-yl)ethan-1-one], the EC50 at human M4 receptor, on rM4 receptors and on hM4 receptors was not below 2000 nM in each case.

As for `COc1nc(OC)c2c(n1)C(C)N(C(=O)CC1CN(c3ccnc(C(F)(F)F)c3)C1)C2` (single isomer, unassigned) [Compound I-70, 1-(2,4-Dimethoxy-7-methyl-5,7-dihydro-6H-pyrrolo[3,4-d]pyrimidin-6-yl)-2-(1-(2-(trifluoromethyl)pyridin-4-yl)azetidin-3-yl)ethan-1-one], the EC50 is not above 100 nM on human M4 receptor, not below 2000 nM at rM4 receptors and 500 to 2000 nM at hM4 receptors.

Turning to `COc1nc(OC)c2c(n1)C(C)N(C(=O)CC1CN(c3ccnc(C(F)(F)F)c3)C1)C2` (single isomer, unassigned) [Compound I-71, 1-(2,4-Dimethoxy-7-methyl-5,7-dihydro-6H-pyrrolo[3,4-d]pyrimidin-6-yl)-2-(1-(2-(trifluoromethyl)pyridin-4-yl)azetidin-3-yl)ethan-1-one], the concentration giving a half-maximal response (EC50) at human M4 receptor is 500 to 2000 nM; at rM4 receptors, not below 2000 nM; on hM4 receptors, 500 to 2000 nM.

Consider `COc1nc(Cl)nc2c1CN(C(=O)CC1CN(c3ccnc(C(F)(F)F)c3)C1)C2` [Compound I-1, 1-(2-Chloro-4-methoxy-5,7-dihydro-6H-pyrrolo[3,4-d]pyrimidin-6-yl)-2-(1-(2-(trifluoromethyl)pyridin-4-yl)azetidin-3-yl)ethan-1-one], for which the figures for the 50% effective concentration (EC50) at human M4 receptor, at rM4 receptors and on hM4 receptors were not above 100 nM, 500 to 2000 nM and 100 to 500 nM, respectively.

Regarding `COc1nc(C#N)nc2c1CN(C(=O)CC1CN(c3ccnc(C(F)(F)F)c3)C1)C2` [Compound I-2, 4-Methoxy-6-(2-(1-(2-(trifluoromethyl)pyridin-4-yl)azetidin-3-yl)acetyl)-6,7-dihydro-5H-pyrrolo[3,4-d]pyrimidine-2-carbonitrile], the results for the EC50 at human M4 receptor, on rM4 receptors and at hM4 receptors were not above 100 nM, 500 to 2000 nM and not above 100 nM, respectively.

For the compound `COc1cc(N2CC(CC(=O)N3Cc4nc(C#N)nc(OC)c4C3C)C2)cc(C(F)(F)F)n1` (stereo not drawn) [Compound I-31, 4-Methoxy-6-(2-(1-(2-methoxy-6-(trifluoromethyl)pyridin-4-yl)azetidin-3-yl)acetyl)-5-methyl-6,7-dihydro-5H-pyrrolo[3,4-d]pyrimidine-2-carbonitrile], the figures for the EC50 on human M4 receptor, on rM4 receptors and on hM4 receptors were not below 2000 nM, not below 2000 nM and 100 to 500 nM, respectively.

Consider `COc1nc(C)nc2c1CN(C(=O)CC1CN(c3ccnc(C(F)(F)F)c3)C1)C2` [Compound I-43, 1-(4-Methoxy-2-methyl-5,7-dihydro-6H-pyrrolo[3,4-d]pyrimidin-6-yl)-2-(1-(2-(trifluoromethyl)pyridin-4-yl)azetidin-3-yl)ethan-1-one], for which the results for the EC50 on human M4 receptor, at rM4 receptors and on hM4 receptors were 100 to 500 nM, 500 to 2000 nM and 100 to 500 nM, respectively.

For `COc1nc(C)nc2c1CN(C(=O)CC1CN(c3ccc(C(F)(F)F)nc3)C1)C2` [Compound I-44, 1-(4-Methoxy-2-methyl-5,7-dihydro-6H-pyrrolo[3,4-d]pyrimidin-6-yl)-2-(1-(6-(trifluoromethyl)pyridin-3-yl)azetidin-3-yl)ethan-1-one], the concentration for a half-maximal effect (EC50) on human M4 receptor was not below 2000 nM; on rM4 receptors, 500 to 2000 nM; on hM4 receptors, not below 2000 nM.

With `COc1nc(C)nc2c1CN(C(=O)CC1CN(c3ncns3)C1)C2` [Compound I-45, 2-(1-(1,2,4-Thiadiazol-5-yl)azetidin-3-yl)-1-(4-methoxy-2-methyl-5,7-dihydro-6H-pyrrolo[3,4-d]pyrimidin-6-yl)ethan-1-one], the figures for the EC50 at human M4 receptor, on rM4 receptors and on hM4 receptors were not below 2000 nM, 500 to 2000 nM and 100 to 500 nM, respectively.

As to `CCOc1nc(C)nc2c1CN(C(=O)CC1CN(c3ccnc(C(F)(F)F)c3)C1)C2` [Compound I-46, 1-(4-Ethoxy-2-methyl-5,7-dihydro-6H-pyrrolo[3,4-d]pyrimidin-6-yl)-2-(1-(2-(trifluoromethyl)pyridin-4-yl)azetidin-3-yl)ethan-1-one], the values for the EC50 on human M4 receptor, on rM4 receptors and on hM4 receptors were 500 to 2000 nM, not below 2000 nM and 500 to 2000 nM, respectively.

Take `Cc1nc2c(c(OC(C)C)n1)CN(C(=O)CC1CN(c3ccnc(C(F)(F)F)c3)C1)C2` [Compound I-47, 1-(4-Isopropoxy-2-methyl-5,7-dihydro-6H-pyrrolo[3,4-d]pyrimidin-6-yl)-2-(1-(2-(trifluoromethyl)pyridin-4-yl)azetidin-3-yl)ethan-1-one]: the half-maximal effective concentration (EC50) at human M4 receptor, on rM4 receptors and at hM4 receptors was not below 2000 nM each time.

On to `Cc1nc2c(c(OC3CC3)n1)CN(C(=O)CC1CN(c3cccnc3)C1)C2` [Compound I-48, 1-(4-Cyclopropoxy-2-methyl-5,7-dihydro-6H-pyrrolo[3,4-d]pyrimidin-6-yl)-2-(1-(pyridin-3-yl)azetidin-3-yl)ethan-1-one], for which the EC50 at human M4 receptor is not below 2000 nM; at rM4 receptors it was not below 2000 nM; on hM4 receptors, 500 to 2000 nM.
